Results from ChEMBL document CHEMBL5523718, “Design, synthesis, molecular modeling, in vitro and in vivo biological evaluation of potent anthranilamide derivatives as dual P-glycoprotein and CYP3A4 inhibitors” (Eur J Med Chem, 2024).
Values after ≈ are worked out from the molar mass of the structure shown. Values joined by “and” are separate entries in the source; they are usually repeats but may differ in a detail not shown here. Equal values may be shown once.

Legend:
[1] = target: ATP-dependent translocase ABCB1 (Homo sapiens, UniProt P08183); experiment: Inhibition of P-gp in human MES-SA/Dx5 cells; type: cell-based
Sequence of ATP-dependent translocase ABCB1 (P08183 whole entry): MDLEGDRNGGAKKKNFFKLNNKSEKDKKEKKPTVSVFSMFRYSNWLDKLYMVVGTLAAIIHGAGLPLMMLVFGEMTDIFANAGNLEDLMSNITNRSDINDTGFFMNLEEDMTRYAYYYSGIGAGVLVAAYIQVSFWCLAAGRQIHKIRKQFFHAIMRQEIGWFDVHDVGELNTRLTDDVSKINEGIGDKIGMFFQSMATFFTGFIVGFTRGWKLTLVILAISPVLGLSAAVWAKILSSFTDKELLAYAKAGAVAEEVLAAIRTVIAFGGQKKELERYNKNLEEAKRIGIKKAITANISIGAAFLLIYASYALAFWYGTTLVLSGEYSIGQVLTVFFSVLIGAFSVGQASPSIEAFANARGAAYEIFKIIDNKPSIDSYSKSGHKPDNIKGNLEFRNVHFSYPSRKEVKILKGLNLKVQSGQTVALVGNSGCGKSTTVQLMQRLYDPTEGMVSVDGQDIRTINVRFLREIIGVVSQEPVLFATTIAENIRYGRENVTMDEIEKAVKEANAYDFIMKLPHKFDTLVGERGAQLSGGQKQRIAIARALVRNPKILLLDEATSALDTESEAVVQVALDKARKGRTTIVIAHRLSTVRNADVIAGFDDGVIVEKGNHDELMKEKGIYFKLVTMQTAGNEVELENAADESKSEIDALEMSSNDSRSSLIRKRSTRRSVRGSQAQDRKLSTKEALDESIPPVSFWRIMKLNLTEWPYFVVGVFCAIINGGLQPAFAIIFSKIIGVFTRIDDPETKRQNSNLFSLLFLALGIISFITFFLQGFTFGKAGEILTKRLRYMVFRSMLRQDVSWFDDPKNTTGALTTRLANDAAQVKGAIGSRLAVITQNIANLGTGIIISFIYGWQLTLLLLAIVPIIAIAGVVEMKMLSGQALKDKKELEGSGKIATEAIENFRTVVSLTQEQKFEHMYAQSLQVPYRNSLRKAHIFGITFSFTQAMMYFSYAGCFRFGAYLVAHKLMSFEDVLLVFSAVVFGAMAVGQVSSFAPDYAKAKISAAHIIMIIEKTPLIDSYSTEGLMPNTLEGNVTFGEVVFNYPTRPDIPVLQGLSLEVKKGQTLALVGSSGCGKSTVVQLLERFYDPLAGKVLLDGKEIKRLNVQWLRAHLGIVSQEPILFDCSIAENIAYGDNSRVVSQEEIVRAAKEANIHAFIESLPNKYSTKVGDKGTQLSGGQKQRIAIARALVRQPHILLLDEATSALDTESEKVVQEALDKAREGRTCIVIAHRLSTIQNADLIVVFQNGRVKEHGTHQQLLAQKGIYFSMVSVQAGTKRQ

Cytochrome P450 3A4 [2] = target: T1, Cytochrome P450 3A4 (Homo sapiens, UniProt P08684); experiment: Inhibition of CYP3A4 in human liver using luciferin-IPA as substrate microsome preincubated with compound for 10 mins followed by NADPH addition and measured after 5 mins; type: ADME, microsomes
T1 sequence (P08684 whole entry): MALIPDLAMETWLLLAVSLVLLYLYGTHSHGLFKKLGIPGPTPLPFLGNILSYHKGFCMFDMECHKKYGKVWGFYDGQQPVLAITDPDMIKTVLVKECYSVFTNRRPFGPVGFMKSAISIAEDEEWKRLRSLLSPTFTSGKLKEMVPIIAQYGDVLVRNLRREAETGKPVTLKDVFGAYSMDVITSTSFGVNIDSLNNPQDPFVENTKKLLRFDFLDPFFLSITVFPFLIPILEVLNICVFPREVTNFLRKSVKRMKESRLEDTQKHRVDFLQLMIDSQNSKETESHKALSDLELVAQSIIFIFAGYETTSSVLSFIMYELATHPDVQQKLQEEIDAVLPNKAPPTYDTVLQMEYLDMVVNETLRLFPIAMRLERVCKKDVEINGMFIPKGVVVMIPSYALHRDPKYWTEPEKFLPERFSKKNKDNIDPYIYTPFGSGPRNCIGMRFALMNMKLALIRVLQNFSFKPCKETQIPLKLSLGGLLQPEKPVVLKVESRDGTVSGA

MES-SA/Dx5 = experiment: Cytotoxicity against human MES-SA/Dx5 cells at 1.28 uM incubated for 3 days by MTT assay relative to control; type: functional; settings: time 3 day
[3] = Apparent permeability of compound across basolateral to apical side in human Caco-2 cells; type: ADME, cell-based
[4] = Apparent permeability of compound across apical to basolateral side in human Caco-2 cells; type: ADME, cell-based
[5] = Apparent permeability across apical to basolateral side in human Caco-2 cells assessed as drug recovery; type: ADME, cell-based; settings: read-out: Drug recovery
[6] = Apparent permeability across basolateral to apical side in human Caco-2 cells assessed as drug recovery; type: ADME, cell-based; settings: read-out: Drug recovery
[7] = Efflux ratio of apparent permeability across basolateral to apical side over apical to basolateral side in human Caco-2 cells; type: ADME, cell-based
Cytochrome P450 3A4 [8] = target: T1, Cytochrome P450 3A4; experiment: Inhibition of CYP3A4 in human Hepatocyte using Luciferin-IPA as substrate; type: ADME, cell-based
[9] = Equilibrium solubility of compound in PBS at pH 7.4; type: physicochemical; settings: for solubility: buffer

Compound	EC50 [1]	IC50 (Cytochrome P450 3A4 [2])	Activity (MES-SA/Dx5) [%]	Papp B→A [3] [×10⁻⁶ cm/s]	Papp A→B [4] [×10⁻⁶ cm/s]	recovery [5] [%]	recovery [6] [%]	efflux ratio [7]	IC50 (Cytochrome P450 3A4 [8])	Papp [3]	Ratio [7]	solubility [9]	solubility thermodynamic ([9]; PBS) [µM]
COc1ccc(CN2CCC(c3ccc(NC(=O)c4cc(OC)c(OC)cc4NC(=O)c4cnc5ccccc5c4)cc3)CC2)cc1OC	43 nM	> 9000 nM	3	–	–	–	–	–	–	–	–	–	–
C[C@H]1O[C@@H](O[C@H]2[C@@H](O)C[C@H](O[C@H]3[C@@H](O)C[C@H](O[C@H]4CC[C@@]5(C)[C@H](CC[C@@H]6[C@@H]5C[C@@H](O)[C@]5(C)[C@@H](C7=CC(=O)OC7)CC[C@]65O)C4)O[C@@H]3C)O[C@@H]2C)C[C@H](O)[C@@H]1O [DIGOXIN]	–	–	–	12.1	0.98	56	68	12.2	–	–	–	–	–
COc1cc(NC(=O)c2cnc3ccccc3c2)c(C(=O)Nc2ccc(N3CCN(Cc4cccc(-c5ccncc5)c4)CC3)cc2)cc1OC	98 nM	540 nM	2	–	–	–	–	–	1770 nM	–	–	–	–
COc1ccc(CN2CCN(c3ccc(NC(=O)c4ccccc4NC(=O)c4cc(=O)c5ccccc5o4)cc3)CC2)cc1OC	422 nM	> 9000 nM	0	–	–	–	–	–	–	–	–	–	–
COc1ccc(CN2CCN(c3ccc(NC(=O)c4cc(OC)c(OC)cc4NC(=O)c4cc(=O)c5ccccc5o4)cc3)CC2)cc1OC	21 nM	> 9000 nM	5	–	–	–	–	–	–	–	–	–	–
COc1cc(NC(=O)c2cc(=O)c3ccccc3o2)c(C(=O)Nc2ccc(N3CCN(Cc4cccc(-n5cncn5)c4)CC3)cc2)cc1OC	328 nM	372 nM	1	–	–	–	–	–	475 nM	–	–	–	–
COc1cc(NC(=O)c2cnc3ccccc3c2)c(C(=O)Nc2ccc(N3CCN(Cc4ccc5c(c4)OCO5)CC3)cc2)cc1OC	22 nM	2110 nM	3	–	–	75	75	–	5530 nM	31.7 10^-6 cm/s	14	–	–
COc1cc(NC(=O)c2cnc3ccccc3c2)c(C(=O)Nc2ccc(N3CCN(Cc4ccc5c(cnn5C)c4)CC3)cc2)cc1OC	19 nM	1880 nM	6	–	–	–	–	–	6240 nM	–	–	–	–
COc1cc(NC(=O)c2cc(=O)c3ccccc3o2)c(C(=O)Nc2ccc(C3CCN(Cc4ccc5c(cnn5C)c4)CC3)cc2)cc1OC	30 nM	1180 nM	1	–	–	–	–	–	5970 nM	–	–	–	–
COc1cc(NC(=O)c2cc(=O)c3ccccc3o2)c(C(=O)Nc2ccc(N3CCN(Cc4cccc(-c5ccncc5)c4)CC3)cc2)cc1OC	121 nM	449 nM	0	–	–	–	–	–	1640 nM	–	–	–	–
COc1cc(NC(=O)c2cc(=O)c3ccccc3o2)c(C(=O)Nc2ccc(N3CCN(Cc4cccc(-n5ccnc5)c4)CC3)cc2)cc1OC	39 nM	162 nM	0	–	–	–	–	–	2400 nM	–	–	–	–
COc1cc(NC(=O)c2cnc3ccccc3c2)c(C(=O)Nc2ccc(C3CCN(Cc4ccc5c(c4)OCO5)CC3)cc2)cc1OC	39 nM	3210 nM	1	–	–	–	–	–	9000 nM	–	–	–	–
COc1cc(NC(=O)c2cnc3ccccc3c2)c(C(=O)Nc2ccc(N3CCN(Cc4cccc(-c5cccnc5)c4)CC3)cc2)cc1OC	55 nM	283 nM	0	2.36	1.29	51	60	1.8	1090 nM	–	–	Not Determined(Insoluble)	–
COc1ccc(CN2CCN(c3ccc(NC(=O)c4cc(OC)c(OC)cc4NC(=O)c4cnc5ccccc5c4)cc3)CC2)cc1OC	29 nM	> 9000 nM	1	–	–	–	–	–	–	–	–	–	–
COc1cc(NC(=O)c2cnc3ccccc3c2)c(C(=O)Nc2ccc(C3CCN(Cc4ccc5c(cnn5C)c4)CC3)cc2)cc1OC	26 nM	3820 nM	3	–	–	–	–	–	9000 nM	–	–	–	–
COc1cc(NC(=O)c2cnc3ccccc3c2)c(C(=O)Nc2ccc(C3CCN(Cc4cccc(-c5cccnc5)c4)CC3)cc2)cc1OC	108 nM	245 nM	0	–	–	–	–	–	967 nM	–	–	–	–

Compound	EC50 [1]	IC50 (Cytochrome P450 3A4 [2])	Activity (MES-SA/Dx5) [%]	Papp B→A [3] [×10⁻⁶ cm/s]	Papp A→B [4] [×10⁻⁶ cm/s]	recovery [5] [%]	recovery [6] [%]	efflux ratio [7]	IC50 (Cytochrome P450 3A4 [8])	Papp [3]	Ratio [7]	solubility [9]	solubility thermodynamic ([9]; PBS) [µM]
COc1cc(NC(=O)c2cc(=O)c3ccccc3o2)c(C(=O)Nc2ccc(C3CCN(Cc4ccc5c(c4)OCO5)CC3)cc2)cc1OC	51 nM	1240 nM	1	–	–	–	–	–	6450 nM	–	–	–	–
COc1cc(NC(=O)c2cnc3ccccc3c2)c(C(=O)Nc2ccc(C3CCN(Cc4cccc(-c5ccncc5)c4)CC3)cc2)cc1OC	188 nM	1120 nM	3	–	–	–	–	–	3210 nM	–	–	–	–
COc1cc(NC(=O)c2cnc3ccccc3c2)c(C(=O)Nc2ccc(N3CCN(Cc4cccc(-n5cncn5)c4)CC3)cc2)cc1OC	354 nM	245 nM	1	–	–	–	–	–	551 nM	–	–	–	–
COc1cc(NC(=O)c2cc(=O)c3ccccc3o2)c(C(=O)Nc2ccc(C3CCN(Cc4cccc(-n5cncn5)c4)CC3)cc2)cc1OC	221 nM	298 nM	0	–	–	–	–	–	1330 nM	–	–	–	–
COc1cc(NC(=O)c2cnc3ccccc3c2)c(C(=O)Nc2ccc(C3CCN(Cc4cccc(-n5cncn5)c4)CC3)cc2)cc1OC	156 nM	654 nM	1	–	–	–	–	–	1760 nM	–	–	–	–
O=C(Nc1ccccc1C(=O)Nc1ccc(N2CCN(Cc3cccc(-c4cccnc4)c3)CC2)cc1)c1cc(=O)c2ccccc2o1	512 nM	399 nM	2	–	–	–	–	–	1860 nM	–	–	–	–
COc1cc(NC(=O)c2cc(=O)c3ccccc3o2)c(C(=O)Nc2ccc(C3CCN(Cc4cccc(-c5ccncc5)c4)CC3)cc2)cc1OC	167 nM and 212 nM	153 nM and 216 nM	1	–	–	–	–	–	1250 nM and 1160 nM	–	–	–	–
CC(=O)N1CCN(c2ccc(OCC3COC(Cn4ccnc4)(c4ccc(Cl)cc4Cl)O3)cc2)CC1 (centres undefined) [KETOCONAZOLE]	–	–	39	–	–	–	–	–	–	–	–	–	–
COc1cc(NC(=O)c2cc(=O)c3ccccc3o2)c(C(=O)Nc2ccc(N3CCN(Cc4cccc(-c5cccnc5)c4)CC3)cc2)cc1OC	43 nM	339 nM	0	< 0.08	0.06	62	86	–	609 nM	–	–	Not Determined(Insoluble)	–
COc1cc(NC(=O)c2cc(=O)c3ccccc3o2)c(C(=O)Nc2ccc(C3CCN(Cc4cccc(-c5cccnc5)c4)CC3)cc2)cc1OC	65 nM and 232 nM	230 nM and 255 nM	0	–	–	–	–	–	1180 nM and 492 nM	–	–	–	–
COc1cc(NC(=O)c2cnc3ccccc3c2)c(C(=O)Nc2ccc(C3CCN(Cc4cccc(-n5ccnc5)c4)CC3)cc2)cc1OC	45 nM	334 nM	1	0.4	0.55	61	72	0.7	1240 nM	–	–	Not Determined(Insoluble)	–
COc1cc(NC(=O)c2cc(=O)c3ccccc3o2)c(C(=O)Nc2ccc(N3CCN(Cc4ccc5c(c4)OCO5)CC3)cc2)cc1OC	31 nM	1640 nM	4	–	–	–	–	–	4660 nM	–	–	–	–
COc1cc(NC(=O)c2cc(=O)c3ccccc3o2)c(C(=O)Nc2ccc(N3CCN(Cc4ccc5c(cnn5C)c4)CC3)cc2)cc1OC	14 nM	1060 nM	2	–	–	–	–	–	8120 nM	–	–	–	–
COc1cc(NC(=O)c2cnc3ccccc3c2)c(C(=O)Nc2ccc(N3CCN(Cc4cccc(-n5ccnc5)c4)CC3)cc2)cc1OC	33 nM	267 nM	0	0.27	0.17	69	74	1.6	1890 nM	–	–	–	0.092 (≈ 0.0614 µg/mL)
COc1ccc(CN2CCC(c3ccc(NC(=O)c4cc(OC)c(OC)cc4NC(=O)c4cc(=O)c5ccccc5o4)cc3)CC2)cc1OC	40 nM	> 9000 nM	0	–	–	–	–	–	–	–	–	–	–
